The supplement of paper PMC10627819

Tests used:
S. pneumoniae D39V [1] = assay: fitness (endpoint OD595 vs no drug) (fraction); higher = more growth
Outline: (§1)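 Fitness expresses the optical density reached at the stationary-phase transition as a fraction of the robust mean of no-drug control wells. It is capped at 1. Measurements were OD595 every 30 min for 14 h at 37 °C after inoculation of 384-well plates at OD595 0.01 (30 µl, or 55 µl for S. pneumoniae), minus the first reading.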

S. aureus DSM 20231 [2] = assay: as above
Outline: as §1

S. aureus Newman [3] = assay: as above
Outline: as §1

S. pneumoniae D39V [4] = assay: Bliss interaction score (quartile over a dose matrix) (fitness difference); higher = more antagonism (negative = synergy)
Outline: (§2)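 The Bliss score subtracts expected fitness, the product of the single-drug fitness values, from observed fitness. Fitness is plate-normalised OD595 at entry into stationary phase, relative to the robust no-drug mean and capped at 1, with single-drug fitness inferred from combinations. Summaries are quartiles over technical, biological and donor/recipient replicates.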

S. aureus DSM 20231 [5] = assay: as above
Outline: as §2

S. aureus Newman [6] = assay: as above
Outline: as §2

B. subtilis 168 = assay: as above
Outline: as §2
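Throughout, for Bliss interaction score (quartile over a dose matrix): first quartile when negative (synergy) and third quartile when positive (antagonism).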

CC1(C)S[C@@H]2[C@H](NC(=O)[C@H](N)c3ccc(O)cc3)C(=O)N2[C@H]1C(=O)O [Amoxicillin] + CN1C2=CC=CC=C2N=C3C1=CC=CC3=O [Pyocyanin]
Settings	fitness
S. aureus DSM 20231 [2], first compound 0.0625 µg/mL, partner 1.25 µg/mL	0.673
S. aureus DSM 20231 [2], first compound 0.0625 µg/mL, partner 2.5 µg/mL	0.635
S. aureus DSM 20231 [2], first compound 0.0625 µg/mL, partner 5 µg/mL	0.435
S. aureus DSM 20231 [2], first compound 0.125 µg/mL, partner 1.25 µg/mL	0.418
S. aureus DSM 20231 [2], first compound 0.125 µg/mL, partner 2.5 µg/mL	0.417
S. aureus DSM 20231 [2], first compound 0.125 µg/mL, partner 5 µg/mL	0.254
S. aureus DSM 20231 [2], first compound 0.25 µg/mL, partner 1.25 µg/mL	0.216
S. aureus DSM 20231 [2], first compound 0.25 µg/mL, partner 2.5 µg/mL	0.195
S. aureus DSM 20231 [2], first compound 0.25 µg/mL, partner 5 µg/mL	0.121
S. aureus Newman [3], first compound 0.0625 µg/mL, partner 1.25 µg/mL	0.829
S. aureus Newman [3], first compound 0.0625 µg/mL, partner 2.5 µg/mL	0.71
S. aureus Newman [3], first compound 0.0625 µg/mL, partner 5 µg/mL	0.486
S. aureus Newman [3], first compound 0.125 µg/mL, partner 2.5 µg/mL	0.767
S. aureus Newman [3], first compound 0.125 µg/mL, partner 5 µg/mL	0.374
S. pneumoniae D39V [1], first compound 0.0008 µg/mL, partner 0.325 µg/mL	0.992
S. pneumoniae D39V [1], first compound 0.0008 µg/mL, partner 0.65 µg/mL	0.987
S. pneumoniae D39V [1], first compound 0.0015 µg/mL, partner 0.325 µg/mL	≥ 1
S. pneumoniae D39V [1], first compound 0.0015 µg/mL, partner 0.65 µg/mL	0.978
S. pneumoniae D39V [1], first compound 0.0015 µg/mL, partner 1.3 µg/mL	0.935
S. pneumoniae D39V [1], first compound 0.003 µg/mL, partner 0.325 µg/mL	≥ 1
S. pneumoniae D39V [1], first compound 0.003 µg/mL, partner 0.65 µg/mL	0.974
S. pneumoniae D39V [1], first compound 0.003 µg/mL, partner 1.3 µg/mL	0.945

one replicate
Settings	fitness
S. aureus DSM 20231 [2], first compound 0.5 µg/mL, partner 1.25 µg/mL	0.0229
S. aureus DSM 20231 [2], first compound 0.5 µg/mL, partner 2.5 µg/mL	0.0134
S. aureus DSM 20231 [2], first compound 0.5 µg/mL, partner 5 µg/mL	0.0115
S. pneumoniae D39V [1], first compound 0.0008 µg/mL, partner 1.3 µg/mL	0.907
S. pneumoniae D39V [1], first compound 0.006 µg/mL, partner 0.325 µg/mL	0.624
S. pneumoniae D39V [1], first compound 0.006 µg/mL, partner 0.65 µg/mL	0.63
S. pneumoniae D39V [1], first compound 0.006 µg/mL, partner 1.3 µg/mL	0.734

Settings	Bliss interaction score
B. subtilis 168	-0.0439
S. aureus DSM 20231 [5]	0.0915
S. aureus Newman [6]	0.0587
S. pneumoniae D39V [4]	0.0791

CC1(C)S[C@@H]2[C@H](NC(=O)[C@H](N)c3ccc(O)cc3)C(=O)N2[C@H]1C(=O)O [Amoxicillin] + CN(N=O)C(=O)N[C@@H](C=O)[C@@H](O)[C@H](O)[C@H](O)CO [Streptozotocin]
fitness
Settings	first compound 0.0008 µg/mL	first compound 0.0015 µg/mL	first compound 0.003 µg/mL	first compound 0.0625 µg/mL	first compound 0.125 µg/mL	first compound 0.25 µg/mL
S. aureus DSM 20231 [2], partner 0.15 µg/mL	–	–	–	0.434	0.362	0.0212
S. aureus DSM 20231 [2], partner 0.3 µg/mL	–	–	–	0.496	0.286	0.0296
S. aureus DSM 20231 [2], partner 0.6 µg/mL	–	–	–	0.41	0.234	0.0211
S. aureus Newman [3], partner 0.15 µg/mL	–	–	–	0.769	0.736	0.753
S. aureus Newman [3], partner 0.3 µg/mL	–	–	–	0.669	0.677	0.64
S. aureus Newman [3], partner 0.6 µg/mL	–	–	–	0.523	0.524	0.491
S. pneumoniae D39V [1], partner 1.2 µg/mL	0.935	0.866	0.844	–	–	–
S. pneumoniae D39V [1], partner 2.4 µg/mL	0.963	0.945	0.929	–	–	–
S. pneumoniae D39V [1], partner 4.8 µg/mL	0.928	0.877	0.812	–	–	–

fitness, one replicate
Settings	partner 0.15 µg/mL	partner 0.3 µg/mL	partner 0.6 µg/mL	partner 1.2 µg/mL	partner 2.4 µg/mL	partner 4.8 µg/mL
S. aureus DSM 20231 [2], first compound 0.5 µg/mL	0.0024	0.0025	0	–	–	–
S. pneumoniae D39V [1], first compound 0.006 µg/mL	–	–	–	0.376	0.405	0.365

Settings	Bliss interaction score
B. subtilis 168	0.0362
S. aureus DSM 20231 [5]	-0.0844
S. aureus Newman [6]	-0.0299
S. pneumoniae D39V [4]	-0.0885

CC1(C)S[C@@H]2[C@H](NC(=O)[C@H](N)c3ccc(O)cc3)C(=O)N2[C@H]1C(=O)O [Amoxicillin] + CN[C@@H]1[C@H](O)[C@H](NC)[C@H]2O[C@@]3(O)C(=O)C[C@@H](C)O[C@H]3O[C@@H]2[C@H]1O [Spectinomycin]
fitness
Settings	partner 4 µg/mL	partner 8 µg/mL	partner 16 µg/mL
S. aureus DSM 20231 [2], first compound 0.0625 µg/mL	0.649	0.63	0.572
S. aureus DSM 20231 [2], first compound 0.125 µg/mL	0.414	–	–
S. aureus DSM 20231 [2], first compound 0.25 µg/mL	–	0.148	–
S. aureus Newman [3], first compound 0.0625 µg/mL	0.874	0.876	0.823
S. aureus Newman [3], first compound 0.125 µg/mL	0.875	0.861	0.816
S. aureus Newman [3], first compound 0.25 µg/mL	0.863	0.826	–
S. pneumoniae D39V [1], first compound 0.0008 µg/mL	0.962	0.911	–
S. pneumoniae D39V [1], first compound 0.0015 µg/mL	0.975	0.94	0.887
S. pneumoniae D39V [1], first compound 0.003 µg/mL	0.882	0.89	0.826

one replicate
Settings	fitness
S. aureus DSM 20231 [2], first compound 0.0625 µg/mL, partner 32 µg/mL	0.533
S. aureus DSM 20231 [2], first compound 0.0625 µg/mL, partner 64 µg/mL	0.0322
S. aureus DSM 20231 [2], first compound 0.125 µg/mL, partner 32 µg/mL	0.302
S. aureus DSM 20231 [2], first compound 0.125 µg/mL, partner 64 µg/mL	0.0172
S. aureus DSM 20231 [2], first compound 0.25 µg/mL, partner 32 µg/mL	0.0187
S. aureus DSM 20231 [2], first compound 0.25 µg/mL, partner 64 µg/mL	0.0033
S. aureus DSM 20231 [2], first compound 0.5 µg/mL, partner 4 µg/mL	0.0014
S. aureus DSM 20231 [2], first compound 0.5 µg/mL, partner 8 µg/mL	0.0081
S. aureus DSM 20231 [2], first compound 0.5 µg/mL, partner 16 µg/mL	0
S. aureus Newman [3], first compound 0.0625 µg/mL, partner 32 µg/mL	0.373
S. aureus Newman [3], first compound 0.0625 µg/mL, partner 64 µg/mL	0.0208
S. aureus Newman [3], first compound 0.125 µg/mL, partner 32 µg/mL	0.308
S. aureus Newman [3], first compound 0.125 µg/mL, partner 64 µg/mL	0.03
S. aureus Newman [3], first compound 0.25 µg/mL, partner 32 µg/mL	0.141
S. aureus Newman [3], first compound 0.25 µg/mL, partner 64 µg/mL	0.0162
S. pneumoniae D39V [1], first compound 0.0008 µg/mL, partner 16 µg/mL	0.951
S. pneumoniae D39V [1], first compound 0.006 µg/mL, partner 4 µg/mL	0.274
S. pneumoniae D39V [1], first compound 0.006 µg/mL, partner 8 µg/mL	0.329
S. pneumoniae D39V [1], first compound 0.006 µg/mL, partner 16 µg/mL	0.416

Settings	Bliss interaction score
B. subtilis 168	-0.0495
S. aureus DSM 20231 [5]	0.0589
S. aureus Newman [6]	0.0408
S. pneumoniae D39V [4]	0.0712

CC1(C)S[C@@H]2[C@H](NC(=O)[C@H](N)c3ccc(O)cc3)C(=O)N2[C@H]1C(=O)O [Amoxicillin] + CN[C@H](CC(C)C)C(=O)N[C@H]1C(=O)N[C@@H](CC(N)=O)C(=O)N[C@H]2C(=O)N[C@H]3C(=O)N[C@H](C(=O)N[C@H](C(=O)O)c4cc(O)cc(O)c4-c4cc3ccc4O)[C@H](O)c3ccc(c(Cl)c3)Oc3cc2cc(c3O[C@@H]2O[C@H](CO)[C@@H](O)[C@H](O)[C@H]2O[C@H]2C[C@](C)(N)[C@H](O)[C@H](C)O2)Oc2ccc(cc2Cl)[C@H]1O [Vancomycin]
Settings	fitness
S. aureus DSM 20231 [2], first compound 0.0625 µg/mL, partner 0.1875 µg/mL	0.605
S. aureus DSM 20231 [2], first compound 0.0625 µg/mL, partner 0.375 µg/mL	0.667
S. aureus DSM 20231 [2], first compound 0.125 µg/mL, partner 0.1875 µg/mL	0.397
S. aureus DSM 20231 [2], first compound 0.125 µg/mL, partner 0.375 µg/mL	0.452
S. aureus DSM 20231 [2], first compound 0.25 µg/mL, partner 0.1875 µg/mL	0.125
S. aureus DSM 20231 [2], first compound 0.25 µg/mL, partner 0.375 µg/mL	0.15
S. aureus DSM 20231 [2], first compound 0.25 µg/mL, partner 0.75 µg/mL	0.176
S. aureus DSM 20231 [2], first compound 0.5 µg/mL, partner 0.1875 µg/mL	0.0104
S. aureus DSM 20231 [2], first compound 0.5 µg/mL, partner 0.375 µg/mL	0.0135
S. aureus DSM 20231 [2], first compound 0.5 µg/mL, partner 0.75 µg/mL	0.0165
S. aureus Newman [3], first compound 0.0625 µg/mL, partner 0.1875 µg/mL	0.916
S. aureus Newman [3], first compound 0.0625 µg/mL, partner 0.375 µg/mL	0.914
S. aureus Newman [3], first compound 0.0625 µg/mL, partner 0.75 µg/mL	0.879
S. aureus Newman [3], first compound 0.125 µg/mL, partner 0.1875 µg/mL	0.887
S. aureus Newman [3], first compound 0.125 µg/mL, partner 0.375 µg/mL	0.875
S. aureus Newman [3], first compound 0.125 µg/mL, partner 0.75 µg/mL	0.877
S. aureus Newman [3], first compound 0.25 µg/mL, partner 0.1875 µg/mL	0.89
S. aureus Newman [3], first compound 0.25 µg/mL, partner 0.375 µg/mL	0.866
S. aureus Newman [3], first compound 0.25 µg/mL, partner 0.75 µg/mL	0.811
S. pneumoniae D39V [1], first compound 0.0008 µg/mL, partner 0.03125 µg/mL	0.988
S. pneumoniae D39V [1], first compound 0.0008 µg/mL, partner 0.0625 µg/mL	0.871
S. pneumoniae D39V [1], first compound 0.0008 µg/mL, partner 0.125 µg/mL	0.894
S. pneumoniae D39V [1], first compound 0.0015 µg/mL, partner 0.03125 µg/mL	0.977
S. pneumoniae D39V [1], first compound 0.0015 µg/mL, partner 0.0625 µg/mL	0.852
S. pneumoniae D39V [1], first compound 0.0015 µg/mL, partner 0.125 µg/mL	0.913
S. pneumoniae D39V [1], first compound 0.0015 µg/mL, partner 0.25 µg/mL	0.869
S. pneumoniae D39V [1], first compound 0.0015 µg/mL, partner 0.5 µg/mL	0.299
S. pneumoniae D39V [1], first compound 0.003 µg/mL, partner 0.03125 µg/mL	0.861
S. pneumoniae D39V [1], first compound 0.003 µg/mL, partner 0.0625 µg/mL	0.762
S. pneumoniae D39V [1], first compound 0.003 µg/mL, partner 0.125 µg/mL	0.783
S. pneumoniae D39V [1], first compound 0.003 µg/mL, partner 0.25 µg/mL	0.742
S. pneumoniae D39V [1], first compound 0.003 µg/mL, partner 0.5 µg/mL	0.289

fitness, S. pneumoniae D39V [1], one replicate
Settings	partner 0.125 µg/mL	partner 0.25 µg/mL	partner 0.5 µg/mL
first compound 0.0008 µg/mL	–	0.928	0.33
first compound 0.006 µg/mL	0.234	0.13	0.0321

Settings	Bliss interaction score
B. subtilis 168	-0.0442
S. aureus DSM 20231 [5]	0.074
S. aureus Newman [6]	0.0681
S. pneumoniae D39V [4]	0.101
